These results are taken from patent publication US20250388593A1 (MITSUBISHI TANABE PHARMA CORPORATION, priority 2023, published 2025).

For this experiment, the target named is CRBN truncate (318-426) (Homo sapiens (Human), UniProt Q96SW2). The experiment in a line: Measurement of molecular interactions using surface plasmon resonance (SPR), Biacore T200. The class given is binding. The following applies: 25° C., immobilized CRBN truncate, upper limit of measurement 200 μM. As for the experimental part: The instrument used was the Biacore T200 (manufactured by Cytiva). The CRBN truncate (318-426) was obtained by expressing a construct with an Avi-tag added at the C-terminus. The sensor chip used was Sensor Chip SA (manufactured by Cytiva). The CRBN truncate was immobilized using the affinity between SA (streptavidin) on the sensor chip and the Avi-tag. The running buffer was a mixture of 10 mM HEPES pH 7.5, 150 mM NaCl, 1 mM TCEP, 0.005% Tween 20, and 2% DMSO. […] Contact time and dissociation time were set at 60 seconds and 120 seconds, respectively.
Sequence of CRBN truncate (318-426) (Q96SW2 318-426): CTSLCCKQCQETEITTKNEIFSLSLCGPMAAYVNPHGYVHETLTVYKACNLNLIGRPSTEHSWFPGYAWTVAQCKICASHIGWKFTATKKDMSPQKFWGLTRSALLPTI
As to `CC(C)(C)OC(=O)NCCc1ccc(S(=O)(=O)N2CC3(CC(=O)N(C4CCC(=O)NC4=O)C3=O)C2)cc1` (centres unmarked) [Example 278, tert-Butyl N-[2-[4-[[6-(2,6-dioxopiperidin-3-yl)-5,7-dioxo-2,6-diazaspiro [3.4]octan-2-yl]sulfonyl]phenyl]ethyl]carbamate], the equilibrium dissociation constant (Kd) was at least 100 µM.

As for `CC(C)(C)OC(=O)NCCn1c(=O)n(C2CCCC(=O)NC2=O)c2ccccc21` (centres unmarked) [Example 197, tert-Butyl N-[2-[3-(2,7-dioxoazepan-3-yl)-2-oxobenzimidazol-1-yl]ethyl]carbamate], the Kd was at least 100 µM.

As for `Cc1sc2c(c1C)C(c1ccc(Cl)cc1)=N[C@@H](CC(=O)NCCCNc1nccc(N3CC4(CC(=O)N(C5CCC(=O)NC5=O)C4=O)C3)n1)c1nnc(C)n1-2` (stereo partly drawn) [Example 315, 2-[(9S)-7-(4-chlorophenyl)-4,5,13-trimethyl-3-thia-1,8,11,12-tetraazatricyclo[8.3.0.02,6]trideca-2(6),4,7,10,12-pentaen-9-yl]-N-[3-[[4-[6-(2,6-dioxopiperidin-3-yl)-5,7-dioxo-2,6-diazaspiro[3.4]octan-2-yl]pyrimidin-2-yl]amino]propyl]acetamide], the Kd is under 50 µM.

On to `Cc1sc2c(c1C)C(c1ccc(Cl)cc1)=N[C@@H](CC(=O)NCCCCCCc1cccc(C(=O)N3CCC4(CCCC(=O)NC4=O)C3)c1)c1nnc(C)n1-2` (stereo partly drawn) [Example 308, 2-[(9S)-7-(4-chlorophenyl)-4,5,13-trimethyl-3-thia-1,8,11,12-tetraazatricyclo[8.3.0.02,6]trideca-2(6),4,7,10,12-pentaen-9-yl]-N-[6-[3-(6,8-dioxo-2,7-diazaspiro[4.6]undecane-2-carbonyl)phenyl]hexyl]acetamide], for which the dissociation constant Kd was at least 100 µM.

In turn, `CC(=O)N1CCN(Cc2ccc(N3CCC4(CCCC(=O)NC4=O)C3)nc2)CC1` (centres unmarked) [Example 89, 2-[5-[(4-Acetylpiperazin-1-yl)methyl]pyridin-2-yl]-2,7-diazaspiro[4.6]undecane-6,8-dione] registered a dissociation constant (Kd) of at least 100 µM.

Molecule `Cc1sc2c(c1C)C(c1ccc(Cl)cc1)=N[C@@H](CC(=O)NCCCCCCCCNC(=O)CCc1cccc3c(=O)n(C4CCCC(=O)NC4=O)ccc13)c1nnc(C)n1-2` (stereo partly drawn) [Example 343, N-[8-[[2-[(9S)-7-(4-chlorophenyl)-4,5,13-trimethyl-3-thia-1,8,11,12-tetraazatricyclo[8.3.0.02,6]trideca-2(6),4,7,10,12-pentaen-9-yl]acetyl]amino]octyl]-3-[2-(2,7-dioxoazepan-3-yl)-1-oxoisoquinolin-5-yl]propanamide] registered a Kd of under 50 µM.

Molecule `CCOC(=O)c1ccc2nc(N3CC4(CC(=O)N(C5CCC(=O)NC5=O)C4=O)C3)sc2c1` (centres unmarked) [Example 52, Ethyl 2-[6-(2,6-dioxopiperidin-3-yl)-5,7-dioxo-2,6-diazaspiro[3.4]octan-2-yl]-1,3-benzothiazole-6-carboxylate] yielded a Kd of under 50 µM.

`Cn1nc(N2CCCC(=O)NC2=O)c2ccc(CCC(=O)OC(C)(C)C)cc21` [Example 291, tert-Butyl 3-[3-(2,4-dioxo-1,3-diazepan-1-yl)-1-methylindazol-6-yl]propanoate] registered a Kd of 50 to 100 µM.

Consider `CC(C)(C)OC(=O)c1ccc(N2CCN(C3CCCC(=O)NC3=O)C(=O)C2)nc1` (centres unmarked) [Example 30, tert-Butyl 6-[4-(2,7-dioxoazepan-3-yl)-3-oxopiperazin-1-yl]pyridine-3-carboxylate], for which the Kd was at least 100 µM.

Consider `Cn1c(=O)n(C2CCCC(=O)NC2=O)c2cccc(I)c21` (centres unmarked) [Example 210, 3-(4-Iodo-3-methyl-2-oxobenzimidazol-1-yl) azepane-2,7-dione], for which the Kd is 50 to 100 µM.

For the molecule `Cn1c(=O)n(C2CCCC(=O)NC2=O)c2ccc(Br)cc21` (centres unmarked) [Example 139, 3-(5-Bromo-3-methyl-2-oxobenzimidazol-1-yl) azepane-2,7-dione], the dissociation constant Kd lay within 50 to 100 µM.

For the molecule `Cc1sc2c(c1C)C(c1ccc(Cl)cc1)=N[C@@H](CC(=O)NCCCCCCCCNC(=O)CN1CC3(CC(=O)N(C4CCC(=O)NC4=O)C3=O)C1)c1nnc(C)n1-2` (stereo partly drawn) [Example 331, 2-[(9S)-7-(4-chlorophenyl)-4,5,13-trimethyl-3-thia-1,8,11,12-tetraazatricyclo[8.3.0.02,6]trideca-2(6),4,7,10,12-pentaen-9-yl]-N-[8-[[2-[6-(2,6-dioxopiperidin-3-yl)-5,7-dioxo-2,6-diazaspiro[3.4]octan-2-yl]acetyl]amino]octyl]acetamide], the Kd is under 50 µM.

`Cn1ccc2c(N3CC4(CC(=O)N(C5CCC(=O)NC5=O)C4=O)C3)ncnc21` (centres unmarked) [Example 235, 6-(2,6-Dioxopiperidin-3-yl)-2-(7-methylpyrrolo[2,3-d]pyrimidin-4-yl)-2,6-diazaspiro[3.4]octane-5,7-dione] yielded an equilibrium dissociation constant (Kd) of at least 100 µM.

As to `O=C1CCCC2(CCN(C(=O)c3ccc4scnc4c3)C2)C(=O)N1` (centres unmarked) [Example 152, 2-(1,3-Benzothiazole-5-carbonyl)-2,7-diazaspiro[4.6]undecane-6,8-dione], the dissociation constant (Kd) was at least 100 µM.

As for `Cc1sc2c(c1C)C(c1ccc(Cl)cc1)=N[C@@H](CC(=O)NCCCCCCc1ccc(C(=O)N3CCC4(CCCC(=O)NC4=O)C3)cc1Cl)c1nnc(C)n1-2` (stereo partly drawn) [Example 323, N-[6-[2-chloro-4-(6,8-dioxo-2,7-diazaspiro[4.6]undecane-2-carbonyl)phenyl]hexyl]-2-[(9S)-7-(4-chlorophenyl)-4,5,13-trimethyl-3-thia-1,8,11,12-tetraazatricyclo[8.3.0.02,6]trideca-2(6),4,7,10,12-pentaen-9-yl]acetamide], the Kd was under 50 µM.

With `COc1cc([N+](=O)[O-])ccc1N1CCC2(CCCC(=O)NC2=O)C1` (centres unmarked) [Example 42, 2-(2-Methoxy-4-nitrophenyl)-2,7-diazaspiro[4.6]undecane-6,8-dione], the dissociation constant Kd was 50 to 100 µM.

`Cn1c(-c2ccc(CCC(=O)OC(C)(C)C)cc2)nn(C2CCCC(=O)NC2=O)c1=O` (centres unmarked) [Example 266, tert-Butyl 3-[4-[1-(2,7-dioxoazepan-3-yl)-4-methyl-5-oxo-1,2,4-triazol-3-yl]phenyl]propanoate] showed a dissociation constant Kd of at least 100 µM.

On to `CC(C)(C)OC(=O)c1cccc(N2CCC3(CCCC(=O)NC3=O)C2)n1` (centres unmarked) [Example 92, tert-Butyl 6-(6,8-dioxo-2,7-diazaspiro [4.6]undecan-2-yl) pyridine-2-carboxylate], for which the Kd was at least 100 µM.

`COc1ccc2c(c1)nnn2C1CCCC(=O)NC1=O` (centres unmarked) [Example 253, 3-(5-Methoxybenzotriazol-1-yl)azepane-2,7-dione] yielded a dissociation constant Kd of at least 100 µM.

Molecule `COC(=O)c1cccc(CN2CC3(CC(=O)N(C4CCC(=O)NC4=O)C3=O)C2)c1` (centres unmarked) [Example 53, Methyl 3-[[6-(2,6-dioxopiperidin-3-yl)-5,7-dioxo-2,6-diazaspiro[3.4]octan-2-yl]methyl]benzoate] came in with a Kd of 50 to 100 µM.

For the molecule `CC1(c2cccc(N)c2)CCCC(=O)NC1=O` (centres unmarked) [Example 133, 3-(3-Aminophenyl)-3-methyl-azepane-2,7-dione], the equilibrium dissociation constant (Kd) was at least 100 µM.

In turn, `Cc1sc2c(c1C)C(c1ccc(Cl)cc1)=N[C@@H](CC(=O)NCCCCCCc1ccc(S(=O)(=O)N(C)C3CCCC(=O)NC3=O)cc1)c1nnc(C)n1-2` (stereo partly drawn) [Example 311, 2-[(9S)-7-(4-chlorophenyl)-4,5,13-trimethyl-3-thia-1,8,11,12-tetraazatricyclo[8.3.0.02,6]trideca-2(6),4,7,10,12-pentaen-9-yl]-N-[6-[4-[(2,7-dioxoazepan-3-yl)-methylsulfamoyl]phenyl]hexyl]acetamide] came in with a Kd of under 50 µM.

The molecule `Cn1ccc2c(N3CCC4(CCCC(=O)NC4=O)C3)ncnc21` (centres unmarked) [Example 37, 2-(7-methylpyrrolo[2,3-d]pyrimidin-4-yl)-2,7-diazaspiro[4.6]undecane-6,8-dione] registered a dissociation constant Kd of at least 100 µM.

`CN(C1CCCC(=O)NC1=O)S(=O)(=O)c1ccc(Cl)cc1` (centres unmarked) [Example 7, 4-Chloro-N-(2,7-dioxoazepan-3-yl)-N-methylbenzenesulfonamide]: the Kd was at least 100 µM.

For `CC(=O)Nc1cccc(C2(C)CCCC(=O)NC2=O)c1` (centres unmarked) [Example 134, N-[3-(3-Methyl-2,7-dioxoazepan-3-yl)phenyl]acetamide], the Kd fell in the range of 50 to 100 µM.

In the case of `COC(=O)c1ccc(CN2CCC3(CCCC(=O)NC3=O)C2)cc1` (centres unmarked) [Example 34, Methyl 4-[(6,8-dioxo-2,7-diazaspiro[4.6]undecan-2-yl)methyl]benzoate], the dissociation constant Kd was at least 100 µM.

Turning to `CC(C)(C)OC(=O)c1ccc(N2CCC3(CCCC(=O)NC3=O)C2=O)nc1` (centres unmarked) [Example 90-2, tert-Butyl 6-(1,9,11-trioxo-2,10-diazaspiro [4.6]undecan-2-yl) pyridine-3-carboxylate], the dissociation constant Kd is at least 100 µM.

`Cc1sc2c(c1C)C(c1ccc(Cl)cc1)=N[C@@H](CC(=O)NCCCCCCCNC(=O)COc1cccc(C(=O)NC3CCCC(=O)NC3=O)n1)c1nnc(C)n1-2` (stereo partly drawn) [Example 347, 6-[2-[7-[[2-[(9S)-7-(4-chlorophenyl)-4,5,13-trimethyl-3-thia-1,8,11,12-tetraazatricyclo[8.3.0.02,6]trideca-2(6),4,7,10,12-pentaen-9-yl]acetyl]amino]heptylamino]-2-oxo-ethoxy]-N-(2,7-dioxoazepan-3-yl)pyridine-2-carboxamide] yielded a dissociation constant Kd of under 50 µM.

`O=C1CCCC(CNC(=O)c2ccccc2)C(=O)N1` (centres unmarked) [Example 57, N-[(2,7-Dioxoazepan-3-yl)methyl]benzamide] gave a Kd of at least 100 µM.

For `COc1ccc2sc(N3CC4(CC(=O)N(C5CCC(=O)NC5=O)C4=O)C3)nc2c1` (centres unmarked) [Example 239, 6-(2,6-Dioxopiperidin-3-yl)-2-(5-methoxy-1,3-benzothiazol-2-yl)-2,6-diazaspiro[3.4]octane-5,7-dione], the dissociation constant (Kd) is under 50 µM.

The molecule `CC(C)(C)OC(=O)COc1cnc(N2CC3(CC(=O)N(C4CCC(=O)NC4=O)C3=O)C2)nc1` (centres unmarked) [Example 234] came in with an equilibrium dissociation constant (Kd) of at least 100 µM.

For the molecule `COc1cccc2nn(C3CCCC(=O)NC3=O)nc12` (centres unmarked) [Example 256, 3-(4-Methoxybenzotriazol-2-yl)azepane-2,7-dione], the dissociation constant (Kd) is at least 100 µM.
